The results in this text go back to ChEMBL document CHEMBL1146186, “Synthesis and biological evaluation of type VI beta-turn templated RGD peptidomimetics” (Bioorg Med Chem Lett, 2006).

Test [1] concerns the target Integrin alpha-V/beta-3 (Homo sapiens) (UniProt P05106+P06756). Description: Inhibition of alpha-V-beta-3 receptor. The class given is protein-complex assay.
Test [2] addresses Integrin alpha-V/beta-5 (Homo sapiens) (UniProt P06756+P18084). Description: Inhibition of alpha-V-beta-5 receptor. Type of test: protein-complex assay.

With `N=C(N)NCCC[C@@H]1NC(=O)[C@H]2C/C=C\C[C@H](NC(=O)[C@H](CC(=O)O)NC(=O)CNC1=O)C(=O)N2`, the Activity came to 0.159 µM in test [1] and 0.538 µM in test [2].
For `N=C(N)NCCC[C@@H]1NC(=O)[C@H]2CCCC[C@H](NC(=O)[C@H](CC(=O)O)NC(=O)CNC1=O)C(=O)N2`, in that order: 0.28 µM and above 5 µM.
For `N=C(N)NCCC[C@@H]1NC(=O)[C@@H]2C/C=C\C[C@@H](NC(=O)[C@H](CC(=O)O)NC(=O)CNC1=O)C(=O)N2`, in that order: 0.925 µM and above 5 µM.
For `N=C(N)NCCC[C@@H]1NC(=O)[C@@H]2CCCC[C@@H](NC(=O)[C@H](CC(=O)O)NC(=O)CNC1=O)C(=O)N2`, in that order: 0.615 µM and above 5 µM.
